Measured values reported in patent US8496927B2, “CD20 negatively converted B-cell malignant lymphoma cell line and utilization thereof” (National University Corporation Nagoya University, priority 2006, dated 2013).

What was measured:
[1] = tested on: DNMT1 (DNA methyltransferase 1); experiment: DNMT1 expression in RRBL1 cells by western blotting; type: cell-based, human; conditions: day 1 after Aza injection
Experimental: (§1) Subsequently, changes with time regarding CD20 mRNA expression and CD20 protein expression were examined (FIG. 7B) Aza was injected to a culture solution on day 0, and cultured at 37° C. for 24 hours (day 1). Then, the cells were washed and further cultured for 1 to 6 days (day 2 to day 7). RNA and protein were extracted from the cells after culturing, and subjected to analyses by western blotting (using anti-CD20 antibody, anti-IRF4 antibody, anti-PU.1 antibody, anti-DNMT1 antibody, and […]) and RT-PCR.
(§2) IRF4 and Pu.1 are transcriptional factors that have been reported to bind to a CD20 gene promoter. […] DNMT1 (DNA methyltransferase 1) has reported to be decomposed by Aza.

CD20 protein = CD20 protein expression in RRBL1 cells by western blotting; type: cell-based, human; conditions: for induction of CD20 protein: added to RRBL1, analyzed with elapse of time (summary)
Experimental: (§3) 5-aza-2′-deoxycytidine (SIGMA, hereinafter abbreviated as “Aza”) was injected to a culture solution of RRBL1 cells, and the cells were washed after 24 hours. After culturing for further 2 days, RNA and the whole-cell lysate was extracted from the cells, and subjected to analyses by RT-PCR and western blotting. As a result, CD20 mRNA expression increased after the Aza treatment (FIG. 7A, RT, lane 2). In the western blotting analysis, the CD20 protein expression was observed after the Aza treatment (FIG. 7A, IB lane 2).
as §1
Aza and TSA (Trichostatin: histone deacetylase inhibitor) were injected singly or in combination to a culture supernatant of RRBL1 cells. The cells were washed after one day from Aza injection. After further cultured for 2 days, protein was extracted from the cells. In the TSA injected group, protein was extracted from the cells at the point of 24 hours from TSA injection. For the group injected in combination use, Aza was first injected and cultured for 1 day. The cells after washed were cultured for 1 day, then TSA was injected thereto, and further, the cells were dissolved after the elapse of one day to extract protein. Thus obtained each sample was subjected to SDS-PAGE, and western blotting using an anti-CD20 antibody and an anti-GAPDH antibody was then performed.

IRF4 and Pu.1 = IRF4 and Pu.1 expression in RRBL1 cells by western blotting; type: cell-based, human; conditions: time course after Aza injection
Experimental: as §1, §2

CD20 mRNA = CD20 mRNA expression in RRBL1 cells by RT-PCR; type: cell-based, human; conditions: for induction of CD20 mRNA: added to RRBL1, analyzed with elapse of time (summary)
Experimental: as §3, §1

RRBL1 cells [2] = experiment: Rituximab resistance test: number of living cells after culture with rituximab; type: cell-based, human; conditions: rituximab 500 mg/ml, 10% FCS, 37° C. for 2 days
Experimental: (§4) Rituximab ([…]) was added to a PRMI1640 culture solution containing 10% FCS and the solution was cultured at 37° C. for 2 days, and the number of living cells was measured. Further, Raji cells were cultured under the same conditions (control group). […] Thus, it was confirmed that the RRBL1 cells indicates rituximab resistance in vitro.

CD20 positive lymphoma = conditions: Non-patent document 10; cited from earlier work
RRBL1 cells [3] = experiment: Number of living RRBL1 cells treated with Aza and TSA, cultured with or without rituximab; type: cell-based, human; conditions: cultured for 2 days
Excerpt: RRBL1 cells (untreated group) and RRBL1 cells treated with Aza and TSA (treated group) were respectively cultured for 2 days in the absence of rituximab (●, ▪) or in the presence of rituximab (♦, ▴), and the number of living cells were compared (FIG. 8C).

Raji cells = experiment: Rituximab resistance test: number of living cells after culture with rituximab; type: cell-based; conditions: rituximab 500 mg/ml, 10% FCS, 37° C. for 2 days
Experimental: as §4

[4] = tested on: CD20 positive malignant lymphoma; experiment: Use experience of rituximab-containing chemotherapy, Hospital of Nagoya University; type: in vivo, human
Experimental: Cases of CD20 positive malignant lymphoma in which rituximab-containing chemotherapy was carried out in the Hospital of Nagoya University, School of Medicine are shown. The rituximab-containing chemotherapies were performed in 124 cases in about 5 years from […] to 2006, and in 36 cases (29%) among 124 cases, recurrence or relapse were observed. In 19 cases, about half of these cases, tissue biopsies were carried out again, and in 5 cases (26.3% among the cases subjected to rebiopsy), negative conversion of CD20 expression was confirmed. Prognoses of the cases where CD20 was negatively converted were extremely bad, and patients in all the cases died within 1 year after the confirmation of negative conversion.
In about 5 years from September 2001, CD20 positive malignant lymphoma cases subjected to chemotherapy including rituximab in this facility was 124 cases (FIG. 13), and 36 cases (29.0%) in the 124 cases were recurred or relapsed.

[5] = RRBL1 cells, Aza on day 0, washed day 1, cultured to day 7
[6] = RRBL1 cells, washed after 24 hours, cultured further 2 days

Molecule | DNMT1 expression [1] | culturing time by which CD20 expression is induced (CD20 protein; RRBL1) [days] | CD20 protein expression, change with time (CD20 protein; [5]) | day on which CD20 protein expression level reached peak (CD20 protein; [5]) [days] | CD20 protein expression (western blotting) (CD20 protein; [6]) | induction of CD20 protein (CD20 protein) | IRF4 and Pu.1 expression (IRF4 and Pu.1) | CD20 mRNA expression, change with time (CD20 mRNA; [5]) | CD20 mRNA expression (RT-PCR) (CD20 mRNA; [6]) | induction of CD20 mRNA (CD20 mRNA) | proliferation (number of living cells) (RRBL1 cells [2]) | patients showing rituximab resistance (CD20 positive lymphoma) | proliferation (number of living cells) in the presence of rituximab (RRBL1 cells [3]) | proliferation (number of living cells) (Raji cells) | cases with negative conversion (disappearance or decrease) of CD20 expression ([4]; 5 of 19 recurred/relapsed cases subjected to rebiopsy, FCM and immunostaining) [%] | cases recurred or relapsed ([4]; 36 of 124 cases given rituximab-containing chemotherapy, about 5 years from 2001) [%]
Nc1ncn([C@H]2C[C@H](O)[C@@H](CO)O2)c(=O)n1 [Aza, 5-aza-2′-deoxycytidine] | significant decrease | 1 to 7 | increased from day 1 | 3 | observed | possible | tendency of temporal increase | the same tendency as the CD20 protein expression | increased | possible |  |  |  |  |  | 
CC(/C=C/C(=O)NO)=C\[C@@H](C)C(=O)c1ccc(N(C)C)cc1 [TSA, Trichostatin A] |  |  |  |  |  | possible |  |  |  | possible |  |  |  |  |  | 
rituximab |  |  |  |  |  |  |  |  |  |  | repression of proliferation was not observed | 5 out of 48 | significantly inhibited | significantly repressed | 26.3 | 29
